According to patent publication US7049321B2, “Methods and pharmaceutical compositions for treatment of central and peripheral nervous system disorders and compounds useful therefor” (Israel Institute for Biological Research, priority 2002, dated 2006):
“Also recorded” adds a separate entry of the source.

Assays:
[1] = Chronic oral toxicity up to 13 weeks, dog
AF64A-injected rats = assay: Morris water maze in AF64A-injected rats; format: in vivo, Sprague-Dawley rats
Description: AF64A or saline-injected (6 months old) Sprague-Dawley rats were tested in the Morris Water Maze (MWM) task. The paradigm used assesses spatial learning abilities in a reference memory regimen, and involves training (days 1–4), transfer test (Probe trial—day 4, 3 min following the last training trial) and reversal test (day 5).
Drugs and PBS were administered once a day for 5 days before starting the behavioral testing, and then for the duration of the 5-day experiment, 30 min before testing.
The three measures, escape latency, path length and swimming speed were analyzed by MANOVA, followed by simple main effects contrast analysis.

rabbits with nbm lesions = assay: CSF and cortical Aβ in hypocholinergic (nbm-lesioned) rabbits; format: in vivo, New Zealand White rabbits; conditions: 4 weeks
Excerpt: It is known that experimentally-induced cortical cholinergic denervation results in biochemical elevations of cortical Aβ concentrations and in histologic Aβ deposition (Beach et al, Neurosci Lett 283: 9–12, 2000), and that administration of muscarinic Ml-selective agents to normal animals decreases CSF AP concentrations {Beach et al Brain Res. 905: 220–223, 2001}.
Twenty-eight female New Zealand White rabbits, about 2.5 kg each (young adults) were used. Twenty-one received lesions of the cholinergic nucleus basalis magnocellularis (nbm). The lesion was accomplished with unilateral i.c.v. injections of an immunotoxin consisting of the ribosomal toxin saporin conjugated to the monoclonal antibody ME20.4, which is directed against the low-affinity neurotrophin receptor, p75. The ME20.4 antibody is made against monkey p75 and also recognizes rabbit p75. The dose of immunotoxin was 32.4 μg in 12 μl; this was delivered to the right lateral ventricle 2 mm lateral to the bregma. Seven animals received i.c.v. injections of sterile normal saline (sham lesion). Animals which received the immunotoxin were divided into 3 groups of 7. […] Another group received physostigmine hemisalicylate in normal saline by s.c. osmotic pump at a daily dose of 3 mg/kg. The third group received twice-daily sterile saline s.c. injections. The animals which received a sham lesion were implanted with s.c. osmotic pumps filled with sterile normal saline. Animals were euthanized 4 weeks after surgery. […] Cerebrospinal fluid was taken from the cisterna magna of all animals at the time of sacrifice; the brain was removed and sliced coronally into 0.5 cm slices. […] The other slices were frozen on sheets of dry ice (the other slices are the non-fixed 0.5 cm coronal slices of cerebrum, brainstem and cerebellum).

cholesterol-fed rabbits = assay: Aβ immunoreactivity in cortex of hypercholesterolemic rabbits; format: in vivo, New Zealand white rabbits; conditions: 1 mg/kg, s.c., 10 weeks
Description: New Zealand white male rabbits were allowed food and water ad libitum. Animals were fed either standard chow or chow supplemented with 2% cholesterol by weight (Purina) for 10 weeks. […] Following 10 weeks of treatment animals were sacrificed and evaluated for Aβ immunohistochemistry, when all sections were stained simultaneously.

GSK-3β = GSK-3β activity in rat hippocampal neurons; format: cell-based
Description: (§1) This study was performed in rat hippocampal primary cell cultures using the methods described by Garrido J L et al. (FASEB J 2002; 16:1982).

rat hippocampal neurons = assay: Survival, morphology and apoptosis of hippocampal neurons exposed to Aβ; format: cell-based
Description: as §1

Caco-2 cell permeability = format: in vitro ADME, human; conditions: human, Caco-2; bi-directional assay; read-out: average permeability coefficient (Papp)
Description: (§2) This test is used to determine intestinal permeability of tested compounds. Caco-2 cells, when grown on semipermeable filters, spontaneously differentiate in culture to form confluent monolayers which both structurally and functionally resemble the small intestinal epithelium. Because of this property they are useful as an in vitro model for the study of drug absorption and metabolism during absorption in the intestinal mucosa. Caco-2 monolayers were grown to confluence on collagen-coated, microporous, polycarbonate membranes in 12 well plates and permeability of the test material was determined.

Caco-2 monolayers = assay: Caco-2 cell permeability; format: in vitro ADME, human
Description: as §2

[2] = Cardiac electrophysiology and haemodynamics in awake dogs; format: in vivo, Beagle dogs; conditions: 5 mg/kg orally
Description: • 1. Astemizole (human ether-a-go-go related gene (HERG) Channel) Binding Assay. […] Isolated Guinea Pig Right Atrium (atrial fibrillation). […] Effects of AF292 (dose 5 mg/kg orally) on cardiac electrophysiological, cardio-haemodynamic in instrumented, awake dogs. Healthy trained and chronically instrumented female Beagle dogs of varying age and ranging in body weight from 9.4 to 12 kg, were used for recording of the cardiovascular parameters: heart rate, diastolic and systolic blood pressure, pressure rate product, LV dp/dt max, LV dp/dt max/pd, LV dp/dt min, cardiac output, stroke volume, systemic vascular resistance and the ECG parameters (PQ-, QRS-, QT-, QTcBazett-(QTcB), QTcFridericia-(QTcF) and QTcVan de Water-(QTcVdW) interval duration and QT-dispersion. During the last 18 hours prior to the experiments, the dogs had no access to food. Water was available ad libitum. At the beginning of each experiment, control values of the various parameters were recorded for at least 30 min. Thereafter, 5 mg/kg of AF292 (n=4) or the corresponding volume of the solvent (n=4) was administered orally by gavage. The various haemodynamic parameters were recorded continuously for 4 hours thereafter.

CPY2D6 = CPY2D6 (Homo sapiens, UniProt P10635); assay: Cytochrome P450 inhibition, CYP2D6; format: in vitro ADME; conditions: up to 10 μM
Description: Cytochrome P450 activity can be an indicator for potential drug-drug interactions. AF292 was evaluated in a microtiter plate assay for P450 inhibition.

M5 mAChR = biological target: T1, M5 mAChR (Homo sapiens, UniProt P08912); assay: Arachidonic acid (AA) release, M5; format: cell-based
T1 construct: expressed in transfected cells

[3] = system: adenosine, adrenergic, angiotensin, BZD, bradykinin, CCK, dopamine, opiate, serotonin and other receptors, ion channels, NE transporter; assay: Binding panel of other receptors, channels and transporter (AF292); conditions: 10 μm

T1 sequence (P08912 whole entry): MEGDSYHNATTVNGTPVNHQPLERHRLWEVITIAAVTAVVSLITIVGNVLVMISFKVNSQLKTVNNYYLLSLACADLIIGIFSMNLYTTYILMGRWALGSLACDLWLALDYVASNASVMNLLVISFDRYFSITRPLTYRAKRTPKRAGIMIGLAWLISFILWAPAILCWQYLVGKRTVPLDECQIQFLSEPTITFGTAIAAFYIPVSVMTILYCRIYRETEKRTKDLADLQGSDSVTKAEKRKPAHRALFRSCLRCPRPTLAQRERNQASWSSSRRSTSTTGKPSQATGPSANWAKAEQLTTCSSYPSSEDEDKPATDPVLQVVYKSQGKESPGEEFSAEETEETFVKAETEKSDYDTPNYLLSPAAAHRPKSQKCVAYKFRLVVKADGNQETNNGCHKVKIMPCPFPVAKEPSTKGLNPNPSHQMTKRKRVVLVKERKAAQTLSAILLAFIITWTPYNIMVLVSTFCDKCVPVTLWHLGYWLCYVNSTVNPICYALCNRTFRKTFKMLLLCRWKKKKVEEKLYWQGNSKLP
Sequence of CPY2D6 (P10635 whole entry): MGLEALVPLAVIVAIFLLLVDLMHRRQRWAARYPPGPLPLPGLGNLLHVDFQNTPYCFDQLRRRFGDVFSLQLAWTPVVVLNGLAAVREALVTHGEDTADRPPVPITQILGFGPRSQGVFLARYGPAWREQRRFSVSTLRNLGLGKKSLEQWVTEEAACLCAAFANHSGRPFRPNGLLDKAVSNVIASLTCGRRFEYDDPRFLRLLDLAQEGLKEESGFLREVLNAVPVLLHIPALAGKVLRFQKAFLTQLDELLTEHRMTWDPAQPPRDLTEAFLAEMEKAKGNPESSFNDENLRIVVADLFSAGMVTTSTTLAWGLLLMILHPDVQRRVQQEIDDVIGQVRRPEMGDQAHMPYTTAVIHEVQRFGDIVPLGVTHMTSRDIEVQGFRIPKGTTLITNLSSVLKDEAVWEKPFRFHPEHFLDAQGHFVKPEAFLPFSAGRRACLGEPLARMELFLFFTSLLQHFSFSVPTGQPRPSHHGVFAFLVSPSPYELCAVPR
Description for physchem: This calculation was based on the brain weight (2 gr) vs. total plasma volume (14 ml).

SMILES: CC[C@@H]1SC2(CCN(C)CC2)NC1=O [AF267B, (S)-2-ethyl-8-methyl-1-thia-4,8-diaza-spiro[4.5]decan-3-one]
- NOAEL ([1]; beagle, dog, in vivo, po): 6 to 9 mg/kg/day
- Dose at which effects are seen ([1]; dog): > 9 mg/kg
- ECG changes ([1]; up to 13 weeks oral): no changes in the ECG
- Reversal test (AF64A-injected rats; 1 mg/kg): tendency for improvement
- Training, escape latency (AF64A-injected rats; 1 mg/kg): tendency for improvement
- Reversal test (AF64A-injected rats; 3 mg/kg): tendency for impairment
- Training performance (AF64A-injected rats; 3 mg/kg): tended to impair performance
- Learning (training) (AF64A-injected rats; 0.3, 1, 3 mg/kg po): no significant effect on learning
- Probe trial, spatial bias (escape latency) (AF64A-injected rats; all doses): complete spatial bias
- CSF Aβ (4 kDa band) (rabbits with nbm lesions; 1 mg/kg s.c. twice daily): noticeable decrease
- CSF sAPPα band intensity (rabbits with nbm lesions; 1 mg/kg s.c. twice daily): no significant difference
- Histologic Aβ deposition, % of the lesioned, untreated group (rabbits with nbm lesions): 12%
- Reduction of intensity of the immunoreactivity (cholesterol-fed rabbits): approximately 50%
- Reduction of number of neurons expressing Aβ immunoreactivity (cholesterol-fed rabbits): 25–30%
- GSK-3β activity vs. control in presence of Aβ fibrils (GSK-3β; 10 μM, Aβ fibrils (10 μM) alone 370%): 150%
- Decrease of GSK-3β activity (GSK-3β; 100 μm): 60%
- Protection of hippocampal neurons from Aβ1–40 (rat hippocampal neurons; 10 μM, Aβ1–40 (5 μM)): > 90%
- Aβ1–40-induced apotosis (rat hippocampal neurons; 10 μM, Aβ1–40 (5 μm)): to the control level
- Survival and morphology of hippocampal neurons, compound alone (rat hippocampal neurons; 0.5–50 μM): does not affect the survival and morphology
- Neurites after Aβ1–40 (immunofluorescence) (rat hippocampal neurons; Aβ1–40 (5 μM)): protected the neurons
- pKa (physchem): 7.8

SMILES: CC[C@@H]1SC2(CCNCC2)NC1=O [AF292, (S)-2-Ethyl-1-thia-4,8-diaza-spiro[4.5]decan-3-one]
- Papp (Caco-2 cell permeability): 17.4 ×10⁻⁶ cm/s
- Absorption potential ranking (Caco-2 monolayers): high absorption potential
- Hemodynamic and ECG parameters [2]: no statistically significant and relevant effect
- Inhibition of CPY2D6 (CPY2D6): did not induce significant inhibition
- AA release, M5 mAChR, agonist activity (M5 mAChR): inactive as an agonist; also recorded: PI, AA: M5 mAChR - no effect as agonist
- Binding to panel [3]: no binding at all
